Experimental data reported in US11694765B2, “Interrogatory cell-based assays for identifying drug-induced toxicity markers” (Berg LLC, priority 2012, dated 2023).

Experiments:
[1] = tested on: GPAT1 and TAZ in hyperglycemia conditioned cardiomyocytes; assay: Western blotting of GPAT1 and TAZ protein expression in cardiomyocytes; format: cell-based, human; details: diabetic drug plus rescue molecule (T+R)
Experimental: (§1) Human cardiomyocytes were subject to conditions simulating an diabetic environment experienced by the disease-relevant cells in vivo. Specifically, the cells were exposed to hyperglycemic conditions and hyperlipidemia conditions. The hyperglycemic condition was induced by culturing cells in media containing 22 mM glucose. The hyperlipidemia condition was induced by culturing the cells in media containing 1 mM L-carnitine, 0.7 mM Oleic acid and 0.7 mM Linoleic acid.
The cell model comprising the above-mentioned cells, wherein the cells were exposed to each condition described above, was additionally “interrogated” by exposing the cells to an “environmental perturbation” by treating with a diabetic drug (T) which is known to cause cardiotoxicity, a rescue molecule (R) or both the diabetic drug and the rescue molecule (T+R). Specifically, the cells were treated with diabetic drug; or treated with rescue molecule Coenzyme Q10 at 0, 50 μM, or 100 μM; or treated with both of the diabetic drug and the rescue molecule Coenzyme Q10.
Protein expression levels of GPAT1 and TAZ for each condition and each treatment were tested with western blotting.

[2] = tested on: melanoma cell; details: in the presence of VEGF; cited from earlier work
[3] = tested on: human mitochondrial energy metabolism genes in diabetic cardiomyocytes; assay: Transcriptional profiling of mitochondrial energy metabolism genes in diabetic cardiomyocytes; format: cell-based; details: diabetic drug plus rescue molecule (T+R) vs untreated (UT)
Experimental: as §1, with “acid. […]” for “acid.”
Cell samples from each condition with each perturbation treatment were collected at various times following treatment, including after 6 hours of treatment. For certain conditions, media samples were also collected and analyzed.
iProfiling of changes in total cellular protein expression by quantitative proteomics was performed for cell and media samples collected for each condition and with each “environmental perturbation”, i.e, diabetic drug treatment, Coenzyme Q10 treatment or both, using the techniques described above in the detailed description. […] Following data collection (Ct), the final fold change over control was determined using the δCt method as outlined in manufacturer's protocol. […] Functional assays such as Oxygen consumption rate OCR were measured by employing the Seahorse analyzer essentially as recommended by the manufacturer. […]

[4] = tested on: normal fibroblast; details: co-administration with VEGF; cited from earlier work
[5] = tested on: hyperglycemia conditioned cardiomyocytes; assay: Mitochondrial oxygen consumption rate (Seahorse analyzer); format: cell-based, human; details: diabetic drug plus rescue molecule (T1+R or T2+R)
Experimental: as §1, with “acid. […]” for “acid.”
iProfiling of changes in total cellular protein expression by quantitative proteomics was performed for cell and media samples collected for each condition and with each “environmental perturbation”, i.e, diabetic drug treatment, Coenzyme Q10 treatment or both, using the techniques described above in the detailed description. […] Following data collection (Ct), the final fold change over control was determined using the δCt method as outlined in manufacturer's protocol. […] Functional assays such as Oxygen consumption rate OCR were measured by employing the Seahorse analyzer essentially as recommended by the manufacturer. OCR was recorded by the electrodes in a 7 μl chamber created with the cartridge pushing against the seahorse culture plate. […]

COC1=C(OC)C(=O)C(C/C=C(\C)CC/C=C(\C)CC/C=C(\C)CC/C=C(\C)CC/C=C(\C)CC/C=C(\C)CC/C=C(\C)CC/C=C(\C)CC/C=C(\C)CCC=C(C)C)=C(C)C1=O [Coenzyme Q10]
protein expression level of GPAT1 [1]: normalized | protein expression level of TAZ [1]: normalized | level of Bcl2 [2]: decreased | transcriptional network and expression of human mitochondrial energy metabolism genes [3]: normalize gene expression and transcription | transcriptional network and expression of human mitochondrial energy metabolism genes ([3]; listed as rescue molecule): normalizes gene expression | levels of Bcl2 [4]: no effect | mitochondrial oxygen consumption rate (OCR) [5]: normalized | mitochondrial oxygen consumption rate (OCR) ([5]; listed as rescue molecule): normalizes OCR
